These results are taken from US12630564B2, “Internal cyclic sulphiamidine amide-aryl amide compound and use thereof for treating hepatitis B” (SHANGHAI LONGWOOD BIOPHARMACEUTICALS CO., LTD., priority 2019, dated 2026).

Bounds are passed on as bounds.

What all share (type): cell-based
For one data set, the system named is HepG2 cells. Nature of the data set: Determination of cytotoxicity, HepG2 cells, resazurin assay (Experiment 3). The following applies: 4 days. How it is done: (§1) Experiment 3: Determination of Cytotoxicity
(§2) The cytotoxicity of the test compound was tested using HepG2 cells. The cells were incubated for 4 days in the presence of the test compound. Cell activity was assessed using the resazurin assay.

Assay in data set [1]: as above
The following applies: human. The method, then: as §1, §2

Data set [2] has as its system HBV DNA in the supernatant of HepG2.2.15. The experiment in a line: Determination of anti-HBV activity in HepG2.2.15 cell, HBV DNA in supernatant by qPCR (Experiment 2). The following applies: Hepatitis B virus, HepG2.2.15, HepG2.2.15 cells. How it is done: Experiment 2: Determination of Anti-HBV Activity in HepG2.2.15 Cell
• QIAamp 96 DNA Blood Kit (12) (Qiagen, Item No. 51162); • FastStart Universal Probe Master (Roche, Item No. 04914058001); • Cell-titer Glo Testing Reagent (Promega, Item No. G7573).
Compound dilution: all the compounds for in vitro anti-HBV activity assay and cytotoxicity assay were 3-fold diluted into 8 concentrations. The final starting concentration of the tested compound was 30 μM, the final starting concentration of reference compound GLS4 was 1 μM, and the final concentration of DMSO was 0.5%.
HepG2.2.15 cells (4×10^4 cells/well) was inoculated into 96-well plates and cultured overnight at 37° C., 5% CO2. On the second day, fresh culture medium containing different concentrations of compounds was added into the culture wells. On the fifth day, the old culture solution in the culture well was aspirated and fresh culture medium containing different concentrations of the compound was added.
On the eighth day, the supernatant in the culture well was collected for extraction of HBV DNA, and the content of HBV DNA in the supernatant of HepG2.2.15 was detected by qPCR. After the supernatant was collected, the medium and Cell-titer Glo reagent were added into the culture well, and the chemiluminescence value of each well was measured by microplate reader.
The activity calculation formula was as follows: Y=Bottom+(Top−Bottom)/(1+10^((Log IC50−X)*HillSlope)); • wherein, • X represents the logarithm of the concentration, Y represents the effect value, and Y starts from the bottom and fits to the top by S type fitting.
Bottom represents the bottom of the curve;
Top represents the top of the curve;
HillSlope represents the absolute value of the maximum slope of the curve.

Consider `CC(C)[C@H]1C=Cc2c(cn(C)c2C(=O)Nc2ccc(F)c(C#N)c2)S(=N)(=O)N1` (single isomer, unassigned) [Compound 10b2], for which, in the data set with HepG2 cells, the CC50 was more than 30 µM.
With `CC(C)[C@@H]1C=Cc2c(cn(C)c2C(=O)Nc2ccc(F)c(C#N)c2)S(=N)(=O)N1` (single isomer, unassigned) [Compound 10h2], in the data set on HepG2 cells, the CC50 is more than 30 µM.
In data set [1], `Cn1cc2c(c1C(=O)Nc1ccc(F)c(C#N)c1)CC[C@H](C1CC1)NS2(=N)=O` (single isomer, unassigned) [Compound 100a01] had a cytotoxic concentration (CC50) at 4 days of more than 30 µM.
The compound `Cn1cc2c(c1C(=O)Nc1ccc(F)c(C#N)c1)CC[C@H](C1CC1)NS2(=N)=O` (single isomer, unassigned) [Compound 100a02] displayed a CC50 in the data set with HepG2 cells of more than 30 µM.
In data set [2], `Cn1cc2c(c1C(=O)Nc1ccc(F)c(C#N)c1)C=C[C@H](C1CC1)NS2(=N)=O` (single isomer, unassigned) [Compound 100a04] showed an EC50 of 0.1 to 100 nM. The compound further registered a CC50 at 4 days in data set [1] of more than 30 µM.
Compound `Cn1cc2c(c1C(=O)Nc1ccc(F)c(C#N)c1)CC[C@H](CC1CC1)NS2(=N)=O` (single isomer, unassigned) [Compound 100b02] gave an EC50 in data set [2] of 0.1 to 100 nM. In addition, in data set [1], the CC50 at 4 days was more than 30 µM.
Take `Cn1cc2c(c1C(=O)Nc1ccc(F)c(C#N)c1)C=C[C@H](CC1CC1)NS2(=N)=O` (single isomer, unassigned) [Compound 100b04]: the EC50 in data set [2] is 0.1 to 100 nM. In data set [1], this compound returned a CC50 at 4 days of more than 30 µM.
With `Cn1cc2c(c1C(=O)Nc1ccc(F)c(C#N)c1)CC[C@H](Cc1ccc(F)cc1)NS2(=N)=O` (single isomer, unassigned) [Compound 100c02], the 50% effective concentration (EC50) in data set [2] is 0.1 to 100 nM. Moreover, the CC50 at 4 days in data set [1] is more than 30 µM.
As to `Cn1cc2c(c1C(=O)Nc1ccc(F)c(C#N)c1)C=C[C@H](Cc1ccc(F)cc1)NS2(=N)=O` (single isomer, unassigned) [Compound 100c04], in data set [2], the concentration giving a half-maximal response (EC50) lay in the range of 0.1 to 100 nM. Moreover, in data set [1], the cytotoxic concentration (CC50) at 4 days was more than 30 µM.
The compound `COc1ccc(C[C@H]2CCc3c(cn(C)c3C(=O)Nc3ccc(F)c(C#N)c3)S(=N)(=O)N2)cc1` (single isomer, unassigned) [Compound 100c14] registered a concentration for a half-maximal effect (EC50) in data set [2] of 0.1 to 100 nM. For the same compound, the CC50 at 4 days in data set [1] is more than 30 µM.
`COc1ccc(C[C@H]2C=Cc3c(cn(C)c3C(=O)Nc3ccc(F)c(C#N)c3)S(=N)(=O)N2)cc1` (single isomer, unassigned) [Compound 100c16] came in with an EC50 in data set [2] of 0.1 to 100 nM. For the same compound, the CC50 at 4 days in data set [1] was more than 30 µM.
